Experimental findings from PubChem BioAssay (NCI) are described below.

Test in all cases: inhibition of tumour cell growth, NCI panel, 48 h
Assay [1] concerns SK-MEL-5 melanoma.
The subject of assay [2] is NCI-H522 lung.
Assay [3] concerns KM12 colon.
The subject of assay [4] is DU-145 prostate.
The subject of assay [5] is A498 renal.
The subject of assay [6] is TK-10 renal.
For assay [7], the system named is HOP-92 NSCLC.
Assay [8] deals with SK-OV-3 ovarian.

“And” between values parts separate entries of the source, which are not always exact repeats. Identical values can stand only once.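 1) Cells in 96-well plates. 2) Compound, 48 h, 5 concentrations. 3) Linear interpolation between surrounding doses. 4) Unreached endpoint = highest concentration. Abbreviation: GI50, concentration required for 50% inhibition of growth. TGI: total growth inhibition.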

On to `Nc1c(C(=O)Nc2ccccc2F)sc2nc3c(cc12)C(=O)CCC3`, for which the GI50 in assay [1] was 382 nM; in assay [2], 476 nM; in assay [3], 547 nM; in assay [4] it was 1810 nM; in assay [5] it was 470 nM; in assay [6] it was 4300 nM. Further, the GI50 in assay [7] is 121 nM; in assay [8], 746 nM. The TGI in assay [1] is more than 100000 nM; in assay [2], 3900 nM; in assay [3], more than 100000 nM; in assay [4] it was more than 28600 nM; in assay [5], more than 24000 nM; in assay [6], more than 100000 nM. Moreover, the TGI in assay [7] and in assay [8] was more than 100000 nM each time.
For the compound `COc1cccc2[nH]c(-c3ccccn3)nc12`, the TGI in assay [1], in assay [2], in assay [3], in assay [4], in assay [5] and in assay [6] was more than 100000 nM in each case. In addition, the TGI in assay [7] and in assay [8] was more than 100000 nM each time.
In the case of `CCCCn1sc(=O)n(Cc2ccc(CNC(=O)OCc3ccc4c(Br)cc(Br)c(O)c4n3)cc2)c1=O`, the GI50 in assay [1] is 550 nM; in assay [2], 264 nM; in assay [3], 374 nM; in assay [4] it was 400 nM; in assay [5] it was 105 nM; in assay [6], more than 51500 nM. The GI50 in assay [7] was 1410 nM; in assay [8], 1720 nM. The TGI was 2070 nM in assay [1]; more than 24400 nM in assay [3]; 602 nM in assay [5]; more than 100000 nM in assay [6]; more than 100000 nM in assay [7]; more than 100000 nM in assay [8].
Take `Nc1nnc(Cn2c(-c3ccccc3)nc3ccc(Br)cc3c2=O)s1`: the GI50 in assay [1] was 26800 nM; in assay [2] it was 38100 nM; in assay [3] it was 25100 nM; in assay [4], 85400 nM; in assay [5], 15100 nM; in assay [6], 32000 nM. Besides, the GI50 was 10800 nM in assay [7] and more than 100000 nM in assay [8]. For the same compound, the TGI in assay [1] was 86200 nM; in assay [2], more than 100000 nM; in assay [3] it was more than 100000 nM; in assay [4], more than 100000 nM; in assay [5], 74000 nM; in assay [6], 83900 nM. Besides, the TGI in assay [7] and in assay [8] was more than 100000 nM in each case.
On to `CC1=C[S+](c2ccccc2)c2cccc3cc4ccccc4c1c23` (centres undefined), for which the GI50 in assay [1] is 247 nM; in assay [2], 297 nM; in assay [3], 109 nM; in assay [4] it was 515 nM; in assay [5], 1080 nM; in assay [6], 604 nM. In addition, the GI50 in assay [7] was 506 nM; in assay [8] it was 2410 nM. Moreover, the TGI in assay [1] amounted to 776 nM; in assay [2] it was 1570 nM; in assay [3], 1210 nM; in assay [4], 2130 nM; in assay [5] it was 5390 nM; in assay [6], 2380 nM. Further, the TGI was 2430 nM in assay [7] and 14900 nM in assay [8].
In the case of `COc1ccc(C(=O)c2cc3c(N)c(C(=O)Nc4cccc(Cl)c4C)sc3nc2C)cc1`, the GI50 in assay [1] is 109 nM; in assay [2], 62.3 nM; in assay [3], 106 nM; in assay [4], 105 nM; in assay [5] it was 69.1 nM; in assay [6] it was more than 25000 nM. Besides, the GI50 in assay [7] is 292 nM; in assay [8] it was 161 nM. In addition, the TGI in assay [1] is 2450 nM; in assay [2], more than 6780 nM; in assay [3], more than 25000 nM; in assay [4], more than 25000 nM; in assay [5], 558 nM; in assay [6], more than 25000 nM. Besides, the TGI was 6670 nM in assay [7] and more than 25000 nM in assay [8].
In the case of `C=C(C)[C@@H]1CC[C@]2(COC3CCCCO3)CC[C@]3(C)[C@H](CC[C@@H]4[C@@]5(C)C=C(C=O)C(=O)C(C)(C)[C@@H]5CC[C@]43C)[C@@H]12` (some centres undefined), the GI50 in assay [1] is 1580 nM; in assay [2], 1380 nM; in assay [3], 1370 nM; in assay [4] it was 1570 nM; in assay [5], 368 nM; in assay [6], 1570 nM. The GI50 in assay [7] is 1490 nM; in assay [8], 1840 nM. Moreover, the TGI in assay [1] turned out to be 2930 nM; in assay [2] it was 2860 nM; in assay [3], 3500 nM; in assay [4] it was 2920 nM; in assay [5], 1980 nM; in assay [6], 2960 nM. The TGI in assay [7] was 2890 nM; in assay [8] it was 3320 nM.
In the case of `O=[N+]([O-])c1ccc2ncccc2c1Cl`, the GI50 in assay [1] is 2950 nM; in assay [2] it was 2740 nM; in assay [3], 2170 nM; in assay [4], 3400 nM; in assay [5], 10800 nM; in assay [6], 6380 nM. The results for the GI50 in assay [7] and in assay [8] were 6570 nM and 3130 nM, respectively. Further, the TGI in assay [1] came out at 10000 nM; in assay [2] it was 6590 nM; in assay [3] it was 9140 nM; in assay [4], 10200 nM; in assay [5], 31300 nM; in assay [6], 46100 nM. The TGI is 24600 nM in assay [7] and more than 100000 nM in assay [8].
`Cc1c(NC(=O)OC[C@@H]2COCCN2)cn2ncnc(Nc3ccc4c(cnn4Cc4cccc(F)c4)c3)c12`: the GI50 is 5300 nM and 5560 nM in assay [1]; > 10000 nM and 2160 nM in assay [2]; > 10000 nM and 11500 nM in assay [3]; 9500 nM and 4260 nM in assay [4]; 532 nM and 1020 nM in assay [5]; 546 nM and 415 nM in assay [6]. Besides, the GI50 in assay [7] is 1450 nM and 991 nM; in assay [8], 1090 nM and 711 nM. The TGI in assay [1] is > 10000 nM and 17400 nM; in assay [2], > 10000 nM and 17400 nM; in assay [3], > 10000 nM and 25500 nM; in assay [4], > 10000 nM and 20600 nM; in assay [5], > 10000 nM and 15500 nM; in assay [6], > 10000 nM and 15700 nM. Besides, the TGI in assay [7] is > 10000 nM and 10700 nM; in assay [8] it was > 10000 nM and 16600 nM.
